Laboratory results reported in US9040568B2, “Pharmaceutical compositions for the treatment of pain” (AbbVie Inc., priority 2009, dated 2015).

Tests used:
[1] = test system: carrageenan-induced acute inflammatory thermal hyperalgesia; test: Carrageenan model of acute inflammatory thermal hyperalgesia; assay type: in vivo, rat; conditions: for increase of the PWLcontra: vs vehicle
Protocol: Acute inflammatory thermal hyperalgesia were induced by injecting 100 μl of a 1% solution of λ-carrageenan (Sigma Chemical Co., St. Louis, Mo.) in physiological saline into the plantar surface of the right hind paw. Thermal hyperalgesia measured as paw withdrawal latency (PWL) was determined, using a commercially available thermal paw stimulator (UARDG, University of California, San Diego, Calif.) as described by Hargreaves et al. (Hargreaves et al., 1988). Rats were placed into individual plastic cubicles mounted on a glass surface maintained at 30° C., where a thermal stimulus, in the form of radiant heat emitted from a focused projection bulb, was then applied to the plantar surface of each hind paw. The stimulus current was maintained at 4.50±0.05 amp, and the maximum time of exposure was set at 20.48 s to limit possible tissue damage. The elapsed time until a brisk withdrawal of the hind paw from the thermal stimulus was recorded automatically using photodiode motion sensors. The right (carrageenan injected paw) and left hind paw of each rat was tested in 3 sequential trials at approximately 5 min intervals. Carrageenan-induced thermal hyperalgesia of paw withdrawal latency (PWLcarra) was calculated as the mean of the two shortest latencies. PWL was assessed 30 min (2 h after carrageenan injection) following i.p. compound administration. PWLcarra of the vehicle control group was taken as 0%, whereas the PWL of the contralateral side (PWLcontra) of the vehicle control group was taken as 100%, the analgesic efficacy was expressed as the percentage return of PWLcarra to PWLcontra.

[2] = biological target: T1, human α3β4 nicotinic acetylcholine receptor subtype expressed in HEK-293 cells (Homo sapiens, UniProt P30926+P32297); test: Calcium flux assay (FLIPR) in HEK-293 cells expressing human α3β4; assay type: cell-based; conditions: agonists Compound A and Compound B
T1 construct: expressed in transfected cells
T1 sequence (P32297 32-505): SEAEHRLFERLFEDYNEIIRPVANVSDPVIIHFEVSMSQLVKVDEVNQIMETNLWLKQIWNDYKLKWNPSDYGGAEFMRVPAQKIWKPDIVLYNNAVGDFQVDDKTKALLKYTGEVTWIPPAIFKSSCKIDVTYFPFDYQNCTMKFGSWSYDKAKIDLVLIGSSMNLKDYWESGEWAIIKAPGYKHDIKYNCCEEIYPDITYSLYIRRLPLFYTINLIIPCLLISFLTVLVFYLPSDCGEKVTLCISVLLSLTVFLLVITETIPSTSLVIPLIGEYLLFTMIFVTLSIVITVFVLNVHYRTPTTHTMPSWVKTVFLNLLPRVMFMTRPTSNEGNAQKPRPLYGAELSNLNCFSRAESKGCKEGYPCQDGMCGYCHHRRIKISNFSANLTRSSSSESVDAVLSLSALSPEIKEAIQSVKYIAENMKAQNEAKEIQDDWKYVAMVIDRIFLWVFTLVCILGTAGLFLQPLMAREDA
T1 sequence (P30926 22-498): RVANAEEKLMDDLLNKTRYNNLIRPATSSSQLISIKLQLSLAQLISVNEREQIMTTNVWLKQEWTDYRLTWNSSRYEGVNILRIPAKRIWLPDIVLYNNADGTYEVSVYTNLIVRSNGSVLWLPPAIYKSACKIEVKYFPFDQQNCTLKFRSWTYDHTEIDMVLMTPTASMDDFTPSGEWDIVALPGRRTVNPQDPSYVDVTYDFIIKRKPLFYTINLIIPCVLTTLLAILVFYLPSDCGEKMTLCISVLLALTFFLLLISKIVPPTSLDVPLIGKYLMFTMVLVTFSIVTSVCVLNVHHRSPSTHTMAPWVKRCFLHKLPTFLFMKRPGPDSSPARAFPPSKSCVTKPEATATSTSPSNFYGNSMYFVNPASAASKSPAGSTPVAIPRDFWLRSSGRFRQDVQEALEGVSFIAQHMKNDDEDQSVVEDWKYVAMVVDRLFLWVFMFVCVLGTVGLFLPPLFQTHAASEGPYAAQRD
Protocol: Calcium Flux Assays Using Cells Expressing nAChR Subtypes
Human embryonic kidney (HEK) 293 cells stably expressing human α4β2 or α3β4 combinations are grown to confluency in 162 cm^2 tissue culture flasks in DMEM media supplemented with 10% FBS and 25 μg/ml zeocin and 200 μg/ml hygromycin B. IMR-32 neuroblastoma cells (ATCC) are grown to confluency in 162 cm^2 tissue culture flasks in minimum essential media supplemented with 10% FBS and 1 mM sodium pyruvate, 1% non-essential amino acids and 1% antibiotic-antimycotic. […] Calcium flux was measured using calcium-3 assay kit (Molecular Devices, Sunnyvale, Calif.) or fluo-4 (Invitrogen). […] The cells were loaded with 100 μl of the dye per well and incubated at room temperature for up to one hour for HEK 293 clonal stable cell lines or 30 minutes-45 minutes at 37° C. for IMR-32 cells Fluorescence measurements were read simultaneously from all the wells by a Fluorometic Imaging Plate Reader (FLIPR) at an excitation wavelength of 480 nm and an emission wavelength of 520 nm. Baseline fluorescence was measured for the first 6 seconds at which 3× concentrations of modulator/test compounds were added to the cell plate at 50 μl and incubated for five minutes. The fluorescence intensity was captured every second for the first 1 minute followed by every 5 seconds for an additional 4 minutes. […]

emesis in ferrets = test: Emesis in ferrets; assay type: in vivo, ferret
Protocol: Fasted male ferrets (Marshall BioResources, North Rose, N.Y.) weighing between 1.0 and 1.7 kg are used to determine the emetic effects. α4β2 PAM (Compound 1) was administered first and thirty minutes later, Compound A was administered at various doses. […] The percentage of animals that experienced emesis at a given dose was recorded.

Clc1ccc(OC[C@H]2CCN2)cn1 [Compound A, 5-[(2R)-azetidin-2-ylmethoxy]-2-chloropyridine]
percent reversal of thermal hyperalgesia ([1]; Compound A 10 nmol/kg combined with Compound 1 (3.5 μmol/kg)): 31±13% | PWLcarra ([1]; Compound A 10 nmol/kg i.p. in the presence of Compound 1 (3.5 μmol/kg)): 5.29 ± 0.91 s | percent reversal of thermal hyperalgesia ([1]; Compound A 30 nmol/kg combined with Compound 1 (3.5 μmol/kg)): 46±10% | PWLcarra ([1]; Compound A 30 nmol/kg i.p. in the presence of Compound 1 (3.5 μmol/kg)): 6.35 ± 0.71 s | percent reversal of thermal hyperalgesia ([1]; Compound A 100 nmol/kg combined with Compound 1 (3.5 μmol/kg)): 84±12% | PWLcarra ([1]; Compound A 100 nmol/kg i.p. in the presence of Compound 1 (3.5 μmol/kg)): 8.94 ± 0.79 s | percent reversal of thermal hyperalgesia ([1]; Compound A alone, 100 nmol/kg): 28±5% | PWLcarra ([1]; Compound A alone, 100 nmol/kg i.p.): 5.46 ± 0.36 s | percent reversal of thermal hyperalgesia ([1]; Compound A alone, 300 nmol/kg): 74±9% | PWLcarra ([1]; Compound A alone, 300 nmol/kg i.p.): 8.80 ± 0.65 s | increase of the PWLcontra ([1]; Compound A and Compound 1 co-administered animals): not statistically significant | increase of the PWLcontra ([1]; Compound A treated animals): not statistically significant | ED50 ([1]; Rattus norvegicus, Compound A alone, read-out: ED50 (reversal of thermal hyperalgesia)): 0.16 µmol/kg | leftward shift in the DRC of Compound A ([1]; co-administration of Compound 1): 5 fold

N#Cc1cccc(-c2nc(-c3cccnc3)no2)c1 [Example 1, 3-(3-(pyridin-3-yl)-1,2,4-oxadiazol-5-yl)benzonitrile]
effect of the PAM on the concentration responses to the agonists [2]: unable to affect the concentration responses to the agonists | alteration of PWLcarra ([1]; Compound 1 alone, up to 35 μmmol/kg, i.p.): produced no alteration of PWLcarra | effect on the dose response curve of Compound A for emesis (emesis in ferrets; Compound 1 3.5 μmol/kg with various doses of Compound A): does not shift the dose response curve of Compound A | emesis (emesis in ferrets; alone): does not cause emesis
